The source of these data is ChEMBL document CHEMBL3596144, “New Indole Tubulin Assembly Inhibitors Cause Stable Arrest of Mitotic Progression, Enhanced Stimulation of Natural Killer Cell Cytotoxic Activity, and Repression of Hedgehog-Dependent Cancer” (J Med Chem, 2015).

Calls of active or inactive are those of the source. The calls are words filed in the database; no cut-off is given here.

Data set [1] has as its system HeLa. Briefly: Upregulation of NKG2D ligand expression in human HeLa cells after 48 hrs by immunofluorescence staining-based flow cytometric analysis. The data set is classed as functional, cell-based.
The test system of data set [2] is HeLa. Briefly: Upregulation of DNAM1 ligand expression in human HeLa cells after 48 hrs by immunofluorescence staining-based flow cytometric analysis. It counts as functional, cell-based.
In the next data set the test system is NCI-H1975. Briefly: Cytotoxicity against human NCI-H1975 cells assessed as growth inhibition after 72 hrs by CellTiter-Fluor assay. It counts as functional, cell-based. The conditions noted are these: NCI-H1975, 72 h.
For data set [3], the system named is RD. Briefly: Cytotoxicity against human RD cells assessed as growth inhibition after 48 hrs by MTT assay. The data set is classed as functional, cell-based.
Data set [4] concerns PC-3. Briefly: Cell cycle arrest in human PC3 cells assessed as accumulation at G2/M phase at 500 to 2000 nM after 24 hrs by propidium iodide staining-based flow cytometric analysis. It counts as functional.
The test system of data set [5] is RD. Briefly: Cell cycle arrest in human RD cells assessed as accumulation at G2/M phase at 500 to 2000 nM after 24 hrs by propidium iodide staining-based flow cytometric analysis. The data set is classed as functional.
Data set [6] relates to HepG2. Briefly: Cell cycle arrest in human HepG2 cells assessed as accumulation at G2/M phase at 500 to 2000 nM after 24 hrs by propidium iodide staining-based flow cytometric analysis. The data set is classed as functional.
Data set [7] concerns PC-3. Briefly: Induction of apoptosis in human PC3 cells after 48 hrs by propidium iodide/annexin V-FITC staining-based cytofluorometric analysis. It counts as functional, cell-based.
The test system of data set [8] is HepG2. Briefly: Induction of apoptosis in human HepG2 cells after 48 hrs by propidium iodide/annexin V-FITC staining-based cytofluorometric analysis. It counts as functional, cell-based.
Data set [9] relates to RD. Briefly: Induction of apoptosis in human RD cells at 500 nM after 48 hrs by propidium iodide/annexin V-FITC staining-based cytofluorometric analysis. The data set is classed as functional, cell-based.
The subject of a further data set is OVCAR-8. Briefly: cells. As to conditions: Homo sapiens, OVCAR-8, 48 h.
In data set [10] the target is Protein smoothened (Mus musculus) (UniProt P56726). Briefly: Antagonist activity at smo receptor in mouse NIH3T3 Shh-Light II cells assessed as inhibition of SAG-induced hedgehog pathway after 48 hrs by dual luciferase reporter gene assay. The data set is classed as cell-based.
Chain of Protein smoothened (Mus musculus) (P56726 whole entry): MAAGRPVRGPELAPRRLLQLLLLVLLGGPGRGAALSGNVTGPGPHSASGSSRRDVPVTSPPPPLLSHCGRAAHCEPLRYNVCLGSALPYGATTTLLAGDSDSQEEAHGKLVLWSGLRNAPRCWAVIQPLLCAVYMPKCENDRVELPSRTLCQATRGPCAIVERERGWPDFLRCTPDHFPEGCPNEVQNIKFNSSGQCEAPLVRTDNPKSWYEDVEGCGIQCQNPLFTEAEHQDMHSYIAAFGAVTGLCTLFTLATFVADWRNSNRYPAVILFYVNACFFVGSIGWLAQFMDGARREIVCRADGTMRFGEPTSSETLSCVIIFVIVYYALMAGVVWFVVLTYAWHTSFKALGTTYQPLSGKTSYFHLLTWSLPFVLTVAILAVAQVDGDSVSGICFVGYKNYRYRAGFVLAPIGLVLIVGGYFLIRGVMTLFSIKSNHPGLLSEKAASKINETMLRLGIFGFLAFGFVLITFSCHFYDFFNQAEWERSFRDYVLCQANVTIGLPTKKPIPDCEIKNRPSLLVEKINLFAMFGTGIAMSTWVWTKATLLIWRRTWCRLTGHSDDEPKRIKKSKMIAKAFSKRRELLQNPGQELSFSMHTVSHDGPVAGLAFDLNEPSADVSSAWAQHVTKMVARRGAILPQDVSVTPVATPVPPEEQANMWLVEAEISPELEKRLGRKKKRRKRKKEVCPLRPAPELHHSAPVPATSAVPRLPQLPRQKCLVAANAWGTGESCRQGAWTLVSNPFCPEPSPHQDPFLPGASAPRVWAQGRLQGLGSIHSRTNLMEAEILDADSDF
The nature of a further data set: cells. The conditions noted are these: Homo sapiens, NCI/ADR-RES, 48 h.
A short description of data set [11]: Intrinsic clearance in human liver microsomes assessed per mg of protein preincubated for 10 mins followed by NADP/Glc6P/G6P-DH addition by LC-MS/MS analysis. It counts as ADME. The conditions noted are these: read-out: CLH.
Data set [12] is described as follows: Intrinsic clearance in mouse liver microsomes assessed per mg of protein preincubated for 10 mins followed by NADP/Glc6P/G6P-DH addition by LC-MS/MS analysis. The data set is classed as ADME. The conditions noted are these: read-out: CLH.
The nature of data set [13]: Cytotoxicity against human MESSA cells assessed as growth inhibition after 72 hrs by CellTiter-Glo assay. As to conditions: MES-SA. The data set is classed as functional, cell-based.
Data set [14] in a line: Cytotoxicity against human MESSA/DX5 cells assessed as growth inhibition after 72 hrs by CellTiter-Glo assay. The data set is classed as functional, cell-based. As to conditions: MES-SA/Dx5, 72 h.
The subject of data set [15] is HeLa. Briefly: Induction of apoptosis in human HeLa cells at 20 nM after 24 hrs by propidium iodide/annexin V-FITC staining-based cytofluorometric analysis. It counts as functional, cell-based.
The test system of data set [16] is HeLa. Briefly: Cell cycle arrest in human HeLa cells assessed as accumulation at G2/M phase at 20 nM after 24 hrs by propidium iodide staining-based flow cytometric analysis. It counts as functional.
Data set [17] relates to HeLa. Briefly: Cell cycle arrest in human HeLa cells assessed as accumulation at sub-G1 phase at 20 nM after 24 hrs by propidium iodide staining-based flow cytometric analysis. It counts as functional.
In data set [18] the test system is HeLa. Briefly: Inhibition of microtubule polymerization in human HeLa cells assessed as appearance of tubulin foci and/or small asters of short microtubule fragments at 20 nM after 24 hrs by immunofluorescence staining-based microscopic analysis. The data set is classed as cell-based.
Data set [19] concerns PC-3. Briefly: cells. The conditions noted are these: Homo sapiens, PC-3, 48 h.
Description: Cytotoxicity against human PC3 cells assessed as growth inhibition after 48 hrs by MTT assay

Description for OVCAR-8: Cytotoxicity against human OVCAR8 cells assessed as growth inhibition after 48 hrs by SRB assay

For the compound `COc1cc(C(=O)c2ccn(-c3cccc(N)c3)c2)cc(OC)c1OC`, the outcome with HeLa [1] and in the data set with HeLa [2] was inactive.
Regarding `CC(=O)O[C@H]1C(=O)[C@@]2(C)[C@H]([C@H](OC(=O)c3ccccc3)[C@]3(O)C[C@H](OC(=O)[C@H](O)[C@@H](NC(=O)c4ccccc4)c4ccccc4)C(C)=C1C3(C)C)[C@]1(OC(C)=O)CO[C@@H]1C[C@@H]2O` [PACLITAXEL], the IC50 in the data set with NCI-H1975 is 2.5 nM; in the data set with RD [3], over 10000 nM; in the data set with OVCAR-8 it was 3.7 nM. Also, the result in the data set with PC-3 [4], with RD [5], with HepG2 [6] and in the data set on RD [9] was Active. The Activity result with PC-3 [7] and in the data set on HepG2 [8] was “Dose-dependent effect” each time.
For the compound `COc1cc(Sc2c(-n3ccnc3)[nH]c3ccccc23)cc(OC)c1OC`, the inhibition result in data set [10] is “Dose-dependent effect”.
`CCC1=C[C@@H]2CN(C1)Cc1c([nH]c3ccccc13)[C@@](C(=O)OC)(c1cc3c(cc1OC)N(C)[C@H]1[C@@](O)(C(=O)OC)[C@H](OC(C)=O)[C@]4(CC)C=CCN5CC[C@]31[C@@H]54)C2` [VINORELBINE]: in the data set “cells”, inhibition was half-maximal at 5000 nM (IC50).
As for `CCOc1ccc2ccc(=O)oc2c1` [ETHOXYCOUMARIN], the microsomal CLint worked out at 209 µL/min/mg in [11] and 711 µL/min/mg in data set [12].
On to `CC[C@]1(O)C[C@@H]2CN(CCc3c([nH]c4ccccc34)[C@@](C(=O)OC)(c3cc4c(cc3OC)N(C)[C@H]3[C@@](O)(C(=O)OC)[C@H](OC(C)=O)[C@]5(CC)C=CCN6CC[C@]43[C@@H]65)C2)C1` [VINBLASTINE], for which the IC50 in [13] came out at 3 nM; in data set [14] it was 144 nM; in the data set “cells”, 200 nM; in the data set with PC-3 [19] it was 766 nM. Also, the result with HeLa [15] and with HeLa [17] was Active. The Activity in the data set on HeLa [16] is on record as over 80%. Also, the inhibition entry with HeLa [18] was “Active”.
In the case of `COc1cc(Sc2c(-c3ccccc3)[nH]c3c(Cl)c(Cl)ccc23)cc(OC)c1OC`, the inhibition result in data set [10] is “Dose-dependent effect”.
`COc1ccc2c(Sc3cc(OC)c(OC)c(OC)c3)c(-c3ccccc3)[nH]c2c1`: the inhibition result in data set [10] was “Dose-dependent effect”.
